Measurements as given in patent publication US20110117169A1, “METHODS AND COMPOSITIONS FOR CAPTURE OF CELLS” (AFFINERGY, INC., priority 2009, published 2011).
Ends that are not written are not given here. spacer = not defined here

Experiments:
ECFCs = assay: Capture of ECFCs in flow on coated coverslips (parallel plate flow chamber); type: cell-based, human; conditions: 2×10^6 ECFC circulated 2 h at 37° C.
Method: The ability of the collagen modified with endothelial cell binding peptide SEQ ID NO: 4 to capture ECFCs in flow was analyzed as follows. Glass coverslips were coated with unmodified collagen or cell binding peptide modified-collagen and mounted in a polycarbonate parallel plate flow chamber. PBS/10% FBS was circulated through a closed 150 ml system to block the coverslips. Approximately 2×10^6 ECFC were injected into the system and were circulated for 2 h at 37° C. Coverslips were washed in PBS to remove loosely adhering cells, the remaining cells on the coverslips were lysed in CELLTITERGLO (INVITROGEN, CA), and the cells enumerated by luminescence against a standard curve.

hMSCs [1] = assay: hMSC attachment to PEEK discs in collagen solution ([…]-GLO); type: cell-based, human; conditions: 2 h at 37° C., highest concentration of collagen
Method: To test whether collagen having a covalently attached cell binding peptide could increase cell adhesion to PEEK discs, PEEK discs were coated with collagen and hMSC attachment was measured. Industrial-grade PEEK discs were obtained from […] POLYMERS, Inc Houston, Tex. The discs were machined with a steel punch for a 0.5 cm diameter (thickness of 0.125). Discs (n=2 per group) were coated by two methods. In the first method, the discs were incubated overnight with varying concentrations of cell binding peptide SEQ ID NO: 4-modified collagen (88.5 μmol peptide/g of collagen). The discs were washed to remove unattached peptide and collagen, and the attached biotinylated peptide was detected with Neutravidin-HRP in an ELISA assay. […] In the second method, uncoated PEEK discs were placed in a solution of unmodified or peptide-modified collagen and hMSCs. After 2 h at 37° C., discs were moved to a new plate and washed with PBS to remove unbound cells. The number of attached cells was counted by […]-GLO. […] On the other hand, peptide-conjugated collagen increased cell attachment relative to both uncoated and collagen-coated PEEK. At the highest concentration of peptide-modified collagen, 26% of the cells were attached, whereas only 9% of cells attached to the uncoated discs and 11% to the discs coated with unmodified collagen.

HUVECs [2] = assay: Retention of HUVECs under shear stress on coated coverslips; type: cell-based, human
Method: The ability of the collagen modified with endothelial cell binding peptide SEQ ID NO: 4 to retain HUVECs under shear stress was analyzed as follows. Glass cover-slips were coated with peptide conjugated collagen or unmodified collagen and seeded with HUVECs. Coverslips were secured in a polycarbonate slide with six 1 cm diameter wells enabling simultaneous testing of materials. A closed loop peristaltic pump was used to expose the samples to flow conditions for 30 minutes at laminar flow rates up to 12 dynes/cm^2 in PBS containing 2% FBS. The number of cells retained on the cover slip was determined using […]-GLO (INVITORGEN) and a luminometer.

hMSCs [3] = assay: Binding of peptide-modified collagen to hMSCs, FACS with Neutravidin-PE; parameters: species or system human; conditions: 20,000 hMSCs, 1 hr on ice, serial dilution from 25 μM
Method: In a separate experiment, cell binding peptide SEQ ID NO: 4 was covalently attached to collagen as described herein and tested for its ability to bind hMSCs using an experimental setup similar to that described above. Briefly, collagen with covalently attached SEQ ID NO: 4 peptide was serial diluted (starting from 25 μM) and mixed with 20,000 hMSCs in 2% FBS/PBS. After 1 hr incubation on ice, cells were washed twice with 2% FBS/PBS and cells bound to the collagen with covalently attached SEQ ID NO: 4 peptide were detected with Neutravidin-PE. Cells were washed, transferred into 96-well plates for FACS analysis.

HUVECs [4] = assay: HUVEC capture and retention on plates coated with peptide-modified collagen ([…]-GLO); type: cell-based, human
Method: After washing, 10,000 HUVECs were added per well in serum free medium for 30 min at 37° C. The plates were washed 3 times with PBS containing 2% FBS, and captured cells were detected with […]-GLO (INVITROGEN) using a luminometer and a standard curve. […] For FIG. 21B, the collagen was extracted in gel loading buffer, separated by PAGE, and total protein was stained with SIMPLYBLUE (INVITROGEN). […] Plates with captured HUVECs were prepared as described in FIG. 20A. […]

hMSCs [5] = assay: Adherence of hMSCs to polypropylene in presence of peptide-modified collagen; type: cell-based, human; conditions: after binding in presence of the collagen
human dermal fibroblasts = assay: Fibroblast binding to peptide-modified collagen coated plates; type: cell-based; conditions: for fibroblast binding compared to unmodified collagen: higher concentrations / FIG. 28 summary
Method: The experiment was performed according to the following procedure. Cell-binding peptide (SEQ ID NO: 4) was covalently attached to soluble collagen as described herein at Example 7. 96-well plates were coated with various amounts of unmodified or the peptide-modified collagen (177 μmol peptide/g collagen) over night at 4° C. Unbound collagen was removed and the plates were blocked for 1 h. After washing, 5,000 human dermal fibroblasts were added per well in serum-free medium for 30 min at 37° C. The plates were washed, and bound cells were detected with […]-GLO (PROMEGA) using a luminometer. At 0.0025 μg collagen, fibroblast binding was increased 11-fold for the peptide-modified collagen compared to unmodified collagen (see FIG. 28).

increase in fluorescence signal compared to control (hMSCs [3]): ~100 fold
increase in fibroblast binding compared to unmodified collagen (human dermal fibroblasts; 0.0025 μg collagen, 5,000 fibroblasts per well, 30 min at 37° C.): 11 fold
fibroblast binding compared to unmodified collagen (human dermal fibroblasts; listed as SEQ ID NO: 4 peptide-modified collagen): Increased cell binding
fibroblast binding compared to unmodified collagen (human dermal fibroblasts; listed as cell binding peptide (SEQ ID NO: 4)-modified collagen): enhanced binding
Substance: peptide-modified collagen: SEQ ID NO: 4 with spacer and lysine covalently attached to soluble bovine type I collagen via BS^3 crosslinking reagent (SSFWDVCQGDGTCYGGGSR-{spacer-Lys}; cysteine pairing not given here; reading uncertain; also: covalently attached to soluble bovine type I collagen via BS3 crosslinker, spacer not given here)
ECFCs captured in flow compared to unmodified collagen (ECFCs): about 20 fold
cells attached to PEEK discs (hMSCs [1]): 26%
effect of shear stress on cell capture (HUVECs [2]; 30 minutes, laminar flow up to 12 dynes/cm^2): did not significantly affect cell capture
HUVECs captured compared to unmodified collagen (HUVECs [2]; coated glass cover-slips, PBS containing 2% FBS): about 3 fold
HUVECs retained compared to unmodified collagen after agitation (HUVECs [4]; 1 hour with agitation in PBS containing 2% FBS): 7 fold
increase in HUVEC retention over unmodified collagen (HUVECs [4]; 10,000 HUVECs per well, serum free medium, 30 min at 37° C.): 3 fold
hMSCs retained on the walls of polypropylene plates (hMSCs [5]): ~80%
